Experimental data published in patent publication US7238213B2, “Cell-based assays employing voltage and calcium dyes” (priority 2001, dated 2007).
≈ marks a conversion by molar mass, not a printed value. Entries after “also recorded” stand apart in the source; their conditions may differ. Read-outs that look alike come from different tables or passages of the source.

Tests used:
[1] = Solubility in water of dye quenchers; conditions: for solubility: water, Solubility in Water
[2] = molecular target: T1, GCGR (Homo sapiens, UniProt P47871); test: CNG channel voltage dye assay with quencher dyes, cell line ASC0089 (GCGR); type: cell-based; conditions: for Cell response to glucagon in the presence of the quencher dye: ASC0089, HLB30602 5 μM, 1 h at room temperature, FIG. 19; for Effect of quencher on glucagon potency: compared with other quenchers and MDC dye kit, FIG. 21, 22
T1 construct: expressed in transfected cells
T1 sequence (P47871 26-477, species assumed): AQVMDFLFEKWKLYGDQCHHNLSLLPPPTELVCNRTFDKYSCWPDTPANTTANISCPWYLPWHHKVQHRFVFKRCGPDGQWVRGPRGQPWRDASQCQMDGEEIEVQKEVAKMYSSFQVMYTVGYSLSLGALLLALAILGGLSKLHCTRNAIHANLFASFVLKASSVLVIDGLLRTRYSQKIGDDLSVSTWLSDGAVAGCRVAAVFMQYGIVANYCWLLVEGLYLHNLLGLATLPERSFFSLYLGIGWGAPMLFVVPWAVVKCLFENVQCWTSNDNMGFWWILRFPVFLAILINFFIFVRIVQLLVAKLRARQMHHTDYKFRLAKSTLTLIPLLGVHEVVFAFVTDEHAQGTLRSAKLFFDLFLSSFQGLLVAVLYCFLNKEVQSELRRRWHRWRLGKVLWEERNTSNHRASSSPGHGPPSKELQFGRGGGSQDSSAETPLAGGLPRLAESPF

[3] = molecular target: T2, A2B (Homo sapiens, UniProt P29275); test: CNG channel voltage dye assay with quencher dyes, cell line ASC0097 (A2B); type: cell-based; conditions: FIG. 20
T2 construct: endogenous in cells
T2 sequence (P29275 1-332): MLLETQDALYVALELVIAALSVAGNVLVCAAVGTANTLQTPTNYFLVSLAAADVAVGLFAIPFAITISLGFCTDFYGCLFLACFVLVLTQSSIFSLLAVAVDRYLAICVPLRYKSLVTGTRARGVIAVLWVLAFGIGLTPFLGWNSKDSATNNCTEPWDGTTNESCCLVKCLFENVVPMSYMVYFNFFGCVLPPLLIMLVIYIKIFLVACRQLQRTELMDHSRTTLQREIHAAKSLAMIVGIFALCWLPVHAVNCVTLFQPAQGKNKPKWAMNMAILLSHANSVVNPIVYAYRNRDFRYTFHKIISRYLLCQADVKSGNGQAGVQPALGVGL

[4] = tested on: tyramine receptor; test: Tyramine receptor activation, CNG channel assay with membrane potential dye; type: cell-based; conditions: HEK293 transient, FIG. 16
Protocol: In this example, activation of the tyramine receptor was examined using the CNG channel assay and compared with calcium fluorescence assays using Gα16 and Gαqs. Similar amounts of plasmids comprising CNG channel, Gα16 or Gαqs were used for transient expression in HEK293 cells also transiently expressing tyramine receptor. Calcium assays were performed following the protocol provided by Molecular Devices. For each concentration of tyramine, three recordings were made to obtain an average response in cells expressing Gα16, Gαqs and CNG channel respectively.

[5] = tested on: 20 ligand-receptor pairs; conditions: quenchers for fluorescent voltage dyes
[6] = molecular target: T3, DP (Homo sapiens, UniProt Q13258); test: CNG channel voltage dye assay with quencher dyes, cell line ASC0093 (DP); type: cell-based
T3 construct: expressed in transfected cells; host or cells: cell line ASC0093 (CNG sensor line)
T3 sequence (Q13258 1-359): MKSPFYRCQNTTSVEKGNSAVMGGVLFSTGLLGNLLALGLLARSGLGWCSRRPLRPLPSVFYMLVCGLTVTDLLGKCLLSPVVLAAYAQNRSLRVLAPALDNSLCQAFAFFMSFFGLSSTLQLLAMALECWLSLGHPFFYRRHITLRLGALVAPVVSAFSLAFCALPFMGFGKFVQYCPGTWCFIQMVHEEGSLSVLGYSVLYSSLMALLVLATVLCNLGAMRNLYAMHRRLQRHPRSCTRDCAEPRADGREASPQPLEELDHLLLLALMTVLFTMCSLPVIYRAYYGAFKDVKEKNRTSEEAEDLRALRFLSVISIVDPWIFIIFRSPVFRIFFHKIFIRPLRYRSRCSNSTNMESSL

[7] = molecular target: T4, GIPR (Homo sapiens, UniProt P48546); test: CNG channel voltage dye assay with quencher dyes, cell line ASC0133 (GIPR); type: cell-based; conditions: ASC0133, compared with MDC dye kit R-8034, FIG. 24
T4 construct: expressed in transfected cells; host or cells: cell line ASC0133 (CNG sensor line)
T4 sequence (P48546 22-466): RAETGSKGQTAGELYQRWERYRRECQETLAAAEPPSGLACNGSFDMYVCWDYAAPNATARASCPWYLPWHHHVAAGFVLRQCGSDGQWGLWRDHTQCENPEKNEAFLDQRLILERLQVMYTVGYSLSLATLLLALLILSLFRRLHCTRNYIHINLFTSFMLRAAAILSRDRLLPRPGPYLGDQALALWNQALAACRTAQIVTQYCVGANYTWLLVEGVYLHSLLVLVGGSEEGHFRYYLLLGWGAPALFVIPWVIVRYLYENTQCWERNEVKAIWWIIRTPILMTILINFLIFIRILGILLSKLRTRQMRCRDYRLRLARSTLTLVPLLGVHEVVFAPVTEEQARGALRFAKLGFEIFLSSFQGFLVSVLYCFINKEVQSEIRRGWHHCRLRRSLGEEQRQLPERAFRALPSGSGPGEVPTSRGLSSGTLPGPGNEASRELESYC

[8] = molecular target: T5, VIP2R (Homo sapiens, UniProt P41587); test: CNG channel voltage dye assay with quencher dyes, cell line ASC0145 (VIP2R); type: cell-based; conditions: ASC0145, compared with MDC dye kit R-8034, FIG. 23
T5 construct: expressed in transfected cells; host or cells: cell line ASC0145 (CNG sensor line)
T5 sequence (P41587 24-438): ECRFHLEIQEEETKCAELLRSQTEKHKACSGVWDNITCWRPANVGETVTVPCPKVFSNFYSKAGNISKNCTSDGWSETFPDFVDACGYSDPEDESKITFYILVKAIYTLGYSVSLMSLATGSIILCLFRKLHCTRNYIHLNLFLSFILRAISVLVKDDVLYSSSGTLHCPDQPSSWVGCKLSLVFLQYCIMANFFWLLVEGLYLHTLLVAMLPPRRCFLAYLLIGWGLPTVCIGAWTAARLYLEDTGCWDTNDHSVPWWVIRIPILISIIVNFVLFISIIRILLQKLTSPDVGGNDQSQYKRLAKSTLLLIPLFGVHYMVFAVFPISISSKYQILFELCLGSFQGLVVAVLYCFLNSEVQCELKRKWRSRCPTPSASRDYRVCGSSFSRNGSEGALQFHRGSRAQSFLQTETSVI

[9] = CNG channel voltage dye assay with quencher dyes, cell line ASC0097 (EP2); conditions: NY & H30602
[10] = molecular target: MC1R (Homo sapiens, UniProt Q01726); conditions: cell line ASC0179
Sequence of MC1R (Q01726 whole entry, species assumed): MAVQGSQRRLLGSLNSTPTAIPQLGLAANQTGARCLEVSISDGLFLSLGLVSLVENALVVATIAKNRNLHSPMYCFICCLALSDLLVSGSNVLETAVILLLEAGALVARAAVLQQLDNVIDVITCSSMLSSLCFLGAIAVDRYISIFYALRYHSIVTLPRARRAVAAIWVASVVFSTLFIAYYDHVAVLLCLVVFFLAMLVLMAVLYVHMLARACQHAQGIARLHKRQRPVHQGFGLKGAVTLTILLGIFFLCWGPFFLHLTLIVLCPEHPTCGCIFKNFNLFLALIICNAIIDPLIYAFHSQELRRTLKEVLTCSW

[11] = CNG channel voltage dye assay with quencher dyes, cell line ASC0089 (Cyclase)
[12] = tested on: stably transformed cells expressing a CNG channel gene; test: CNG channel endpoint assay, 384 well, FLEXstation; type: cell-based; conditions: 30 μM, 90 minutes after stimulation
Protocol: The CNG channel assay can also be used to perform endpoint assays. Decay of fluorescence responses results from desensitization of CNG channel was effectively removed by chelating extracellular calcium by EGTA and supplementing inhibitors of phosphodiesterase. Stably transformed cells expressing a CNG channel gene were seeded into 384 well plates and grown as described in previous examples. Forskolin was dissolved at a final concentration of 30 μM in Compound Buffer containing EGTA. Fluorescence intensity values of cells incubated with forskolin or with Compound Buffer only were read using FLEXstation (Molecular Devices) at different time points after forskolin stimulation.

[13] = tested on: cell membranes; test: Effect of EGTA in extracellular assay solution on baseline voltage dye fluorescence; type: cell-based; conditions: CNG channel without pore mutation

CCN(CC)c1ccc2nc3ccc(N)cc3[n+](-c3ccccc3)c2c1.[Cl-] [Methylene Violet 3Rax]
Solubility in Water [1]: 10 g/L

DIAZINE BLACK
Cell response to glucagon in the presence of the quencher dye [2]: abolished

Direct Violet 51
Solubility in Water [1]: 20 g/L

Sulfonazo II
Solubility in Water [1]: 40 g/L

Cc1cc(-c2ccc(/N=N/c3c(S(=O)(=O)O)cc4cc(S(=O)(=O)O)cc(N)c4c3O)c(C)c2)ccc1/N=N/c1c(S(=O)(=O)O)cc2cc(S(=O)(=O)O)cc(N)c2c1O [Trypan Blue (Fluka), Trypan Blue]
Suitability of quencher for assay of adenosine receptor A2B responses to NECA [3]: suitable
solubility [1]: ~10000 µg/mL (≈ 11.5 mM)
Effect of quencher on maximal responses to glucagon ([2]; FIG. 21): did not inhibit maximal responses
Interference of quencher with response to glucagon stimulation ([2]; FIG. 21): interfered
Effect of quencher on glucagon potency ([2]; listed as Trypan blue): reduced glucagon potency by about one order
Effect of quencher on glucagon potency ([2]; listed as trypan blue): significantly reduced glucagon potency

CC1=CC(=C(c2ccc(N)c(C)c2)c2ccc(N)c(C)c2)C=CC1=N.Cl [New Fuchsin]
Solubility in Water [1]: 20 g/L

O=S(=O)([O-])c1cc(O)c2c(/N=N/c3ccc(Nc4ccccc4)c4c(S(=O)(=O)[O-])cccc34)cc(S(=O)(=O)[O-])cc2c1.[Na+].[Na+].[Na+] [Acid Blue 92]
Solubility in Water [1]: 40 g/L

Cc1cc(-c2ccc(/N=N/c3c(S(=O)(=O)O)cc4cc(S(=O)(=O)O)cc(N)c4c3O)c(C)c2)ccc1/N=N/c1c(S(=O)(=O)O)cc2cc(S(=O)(=O)O)cc(N)c2c1O [HLB30702 (Trypan Blue), Trypan Blue]
Suitability of quencher for assay of adenosine receptor A2B responses to NECA [3]: suitable
Solubility in Water [1]: >20 g/L
Interference of quencher with response to glucagon stimulation ([2]; FIG. 21): interfered

NCCc1ccc(O)cc1 [tyramine]
tyramine receptor activation [4]: detectable

Nc1c(N=Nc2ccc([N+](=O)[O-])cc2)c(S(=O)(=O)[O-])cc2cc(S(=O)(=O)[O-])cc(O)c12.[Na+].[Na+] [Nitro Red]
Solubility in Water [1]: 40 g/L
effect of quencher on responses of peptides and other small organic molecules [5]: little effect

O.O=C1c2ccccc2C(=O)c2c1cc(S(=O)(=O)[O-])c(O)c2O.[Na+] [Alizarin Red S monohydrate]
Solubility in Water [1]: 20 g/L

CCCCC[C@H](O)/C=C/[C@H]1C(=O)C[C@H](O)[C@@H]1C/C=C\CCCC(=O)O [PGD2, Prostaglandin D2]
EC50 ([6]; MDC dye): 0.018 nM
maximal response Fmax/Fb ([6]; MDC dye): 4.4
EC50 ([6]; NY & H30602): 0.0078 nM
maximal response Fmax/Fb ([6]; NY & H30602): 4.2

O=S1(=O)OC(c2ccc(O)c(Cl)c2)(c2ccc(O)c(Cl)c2)c2ccccc21 [Chlorophenol Red]
Solubility in Water [1]: 30 g/L (≈ 70.9 mM)

CC(=O)Nc1ccc(S(=O)(=O)[O-])c2cc(S(=O)(=O)[O-])c(N=Nc3ccc(N=Nc4ccc(S(=O)(=O)[O-])cc4)c4ccc(S(=O)(=O)[O-])cc34)c(O)c12.[Na+].[Na+].[Na+].[Na+] [Brilliant Black BN]
Solubility in Water [1]: 30 g/L

Nitrazine Yellow
Effect of quencher on GIP potency [7]: left-shifted by about one order of magnitude; also recorded: increased using nitrazine yellow as a quencher by one order
Solubility in Water [1]: 20 g/L
Effect of quencher on glucagon potency [2]: Glucagon potency increased
Effect of quencher on VIP potency [8]: left-shifted by about one order of magnitude; also recorded: increased using nitrazine yellow as a quencher by more than one order
effect of quencher on responses of peptides and other small organic molecules [5]: little effect

O=c1c(Br)cc2c(-c3ccccc3S(=O)(=O)O)c3cc(Br)c(O)c(O)c3oc-2c1O [Bromopyrogallol Red]
solubility [1]: 5000 µg/mL (≈ 8.96 mM)

O=S1(=O)OC(c2cc(Br)c(O)c(Br)c2)(c2cc(Br)c(O)c(Br)c2)c2ccccc21 [Bromophenol Blue]
Suitability of quencher for assay of adenosine receptor A2B responses to NECA [3]: reduced NECA response without affecting NECA potency
Solubility in Water [1]: 30 g/L (≈ 44.8 mM)
Interference of quencher with response to glucagon stimulation ([2]; FIG. 21): interfered

CCCCC[C@H](O)/C=C/[C@H]1[C@H](O)CC(=O)[C@@H]1CCCCCCC(=O)O [PGE1, Prostaglandin E1]
EC50 [9]: 40 nM
maximal response Fmax/Fb [9]: 5.3

CCN(CC)c1ccc(C(=C2C=CC(=[N+](CC)Cc3cccc(S(=O)(=O)[O-])c3)C=C2)c2ccc(N(CC)Cc3cccc(S(=O)(=O)[O-])c3)cc2)cc1.[Na+] [Acid Violet 17]
Solubility in Water [1]: 30 g/L
Cell response to glucagon in the presence of the quencher dye [2]: abolished

α-MSH
maximal response Fmax/Fb ([10]; MDC dye): 5
maximal response Fmax/Fb ([10]; TB & H30602): 5.1

O=S(=O)([O-])c1cc(O)c(N=Nc2c(O)ccc3ccccc23)c2ccccc12.[Na+] [Palatine Chrome Black 6BN (Calcon)]
Solubility in Water [1]: 30 g/L

C=C[C@@]1(C)CC(=O)[C@]2(O)[C@@]3(C)[C@@H](O)CCC(C)(C)[C@@H]3[C@H](O)[C@H](OC(C)=O)[C@@]2(C)O1 [forskolin]
EC50 ([11]; MDC dye): 230 nM
maximal response Fmax/Fb ([11]; MDC dye): 5.3
EC50 ([11]; NY & H30602): 160 nM
maximal response Fmax/Fb ([11]; NY & H30602): 5.1
increase of fluorescence intensity versus buffer control [12]: 2.8 fold
fluorescence intensity ([12]; n=192): 5.3±0.5×10^5 RFU

O=S(=O)([O-])c1cccc(N=Nc2ccc(N=Nc3ccc(Nc4ccccc4)c4c(S(=O)(=O)[O-])cccc34)c3ccccc23)c1.[Na+].[Na+] [Acid Blue 113]
Solubility in Water [1]: 40 g/L

O=S1(=O)OC(c2cc(Cl)c(O)c(Br)c2)(c2cc(Cl)c(O)c(Br)c2)c2ccccc21 [Bromochlorophenol Blue]
Solubility in Water [1]: 20 g/L (≈ 34.4 mM)

O=C(O)CN(CCOCCOCCN(CC(=O)O)CC(=O)O)CC(=O)O [EGTA]
fluorescence increase over baseline [13]: about 40%
